Assay results taken from US9376432B2, “Use of VEGFR-3 inhibitors for treating hepatocellular carcinoma” (Sanofi, priority 2012, dated 2016).

Tests used:
VEGFR-1 = VEGFR-1 (Homo sapiens, UniProt P17948); conditions: same assays as VEGFR-3; disclosed in the '145 application; cited from earlier work
VEGFR-3 = VEGFR-3 (Homo sapiens, UniProt P35916); conditions: disclosed in the '145 application; read-out: IC50, inhibition of recombinant VEGFR-3 TK activity and autophosphorylation in HEK cells; cited from earlier work
[1] = tested on: DEN-induced hepatocarcinoma; test: DEN chemical-induced hepatocarcinoma in mice; format: in vivo, male C3H mice
Procedure: DEN (N-diethynitrosamine)-induced mouse model has been validated as a representative model for human HCC Wu et al. J. Cancer Res. Clin. Oncol. (2009) 135. 969-981; Chuang et al. Carcinogenesis (2000) 21; 331-335).
Tumor initiation was achieved by a single intra peritoneal injection of 10 mg/kg of N-diethylnitrosamine (DEN) in male C3H mice (Charles river laboratories France) at the age of 5 weeks.
Mice developed tumors in the liver from the 7th month post DEN administration but the incidence reached 100% at the 12th month. The compound of Example 1 was daily administrated P.O. (orally) after suspension in methyl cellulose tween, between the 10th and 12th month after DEN administration.
The body weight was evaluated each week during treatment and on the 12th months. Mice were killed by overdose of sodium pentobarbital, and livers were removed and weighted. The number of tumors per liver was counted and the tumor volume was measured with calipers. The tumor volume V was calculated using formula V=0.52×a^2×b, where “a” represents the smallest tumor diameter and “b” the largest tumor diameter.

[2] = tested on: 85 different kinases and 107 receptors, enzymes and ion channels; test: selectivity versus other kinases, receptors, enzymes and ion channels
[3] = tested on: HepG2 cell line orthotopic xenograft; test: HepG2 cell line orthotopic xenograft model (murine hepatocarcinoma xenograft); format: in vivo, SCID mice; conditions: 100 mg/kg once a day
Procedure: The in vivo anti-tumor efficacy of the compound of Example 1 in HepG2 cell line orthotopic xenograft model was evaluated. The HepG2 cells were injected into liver of SCID mice (obtained from ATCC) and mice were randomized into 2 groups 14 days post cell injection: a control group treated with vehicle and the compound of Example 1-treated group. Treatment was performed once a day at 100 mg/kg in methyl cellulose tween as vehicle.
The tumor size was measured by weighting the left lobe with the tumor at day 28. […] Normal liver lobe was also measured and deduced from the lobe of tumor bearing mice. […] (See FIG. 1).

primary lymphatic cells = test: VEGFC- and VEGFD-induced proliferation of primary lymphatic cells; format: cell-based; conditions: read-out: IC50, inhibition of VEGFC- and VEGFD-induced proliferation
hepatocellular carcinoma = conditions: HCC patients; literature; cited from earlier work
[4] = daily P.O. between 10th and 12th month after DEN, vs vehicle group
[5] = late treatment, 10th to 12th month after DEN, compared to same parameters at the 10th month

Sequence of VEGFR-3 (P35916 25-1363): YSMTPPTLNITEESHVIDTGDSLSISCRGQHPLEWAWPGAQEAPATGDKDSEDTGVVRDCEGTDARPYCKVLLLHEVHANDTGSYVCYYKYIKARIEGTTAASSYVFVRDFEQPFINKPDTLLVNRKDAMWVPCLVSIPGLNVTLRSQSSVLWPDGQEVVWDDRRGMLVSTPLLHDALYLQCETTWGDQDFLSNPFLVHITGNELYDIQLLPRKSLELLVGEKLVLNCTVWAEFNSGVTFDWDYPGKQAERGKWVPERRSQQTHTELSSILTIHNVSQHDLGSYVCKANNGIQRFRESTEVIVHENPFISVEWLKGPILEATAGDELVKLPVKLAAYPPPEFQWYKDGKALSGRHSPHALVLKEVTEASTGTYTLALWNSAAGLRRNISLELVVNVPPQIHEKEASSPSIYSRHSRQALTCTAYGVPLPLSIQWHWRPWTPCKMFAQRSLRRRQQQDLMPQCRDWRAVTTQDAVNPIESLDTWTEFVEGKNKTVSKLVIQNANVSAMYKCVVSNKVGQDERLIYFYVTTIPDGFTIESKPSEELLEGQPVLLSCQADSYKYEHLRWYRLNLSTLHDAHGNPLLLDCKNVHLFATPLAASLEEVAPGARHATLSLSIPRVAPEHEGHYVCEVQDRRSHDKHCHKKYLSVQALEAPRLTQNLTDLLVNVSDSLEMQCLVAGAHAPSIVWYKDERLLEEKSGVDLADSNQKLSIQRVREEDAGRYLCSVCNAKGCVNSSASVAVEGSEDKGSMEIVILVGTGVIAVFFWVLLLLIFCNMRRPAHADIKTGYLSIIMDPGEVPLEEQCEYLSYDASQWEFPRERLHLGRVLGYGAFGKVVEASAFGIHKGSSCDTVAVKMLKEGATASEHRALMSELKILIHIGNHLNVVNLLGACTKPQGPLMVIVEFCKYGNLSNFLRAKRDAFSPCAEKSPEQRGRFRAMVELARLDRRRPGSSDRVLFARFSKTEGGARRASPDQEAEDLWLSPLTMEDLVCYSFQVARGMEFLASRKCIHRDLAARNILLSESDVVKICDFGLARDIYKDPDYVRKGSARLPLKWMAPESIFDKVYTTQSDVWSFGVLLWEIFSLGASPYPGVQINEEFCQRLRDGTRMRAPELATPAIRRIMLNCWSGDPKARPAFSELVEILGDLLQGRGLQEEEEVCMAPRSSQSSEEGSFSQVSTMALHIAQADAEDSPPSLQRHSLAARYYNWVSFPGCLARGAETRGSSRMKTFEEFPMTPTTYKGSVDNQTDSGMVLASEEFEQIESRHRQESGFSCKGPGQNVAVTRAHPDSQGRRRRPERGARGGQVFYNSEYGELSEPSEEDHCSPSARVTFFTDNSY
Sequence of VEGFR-1 (P17948 27-1338): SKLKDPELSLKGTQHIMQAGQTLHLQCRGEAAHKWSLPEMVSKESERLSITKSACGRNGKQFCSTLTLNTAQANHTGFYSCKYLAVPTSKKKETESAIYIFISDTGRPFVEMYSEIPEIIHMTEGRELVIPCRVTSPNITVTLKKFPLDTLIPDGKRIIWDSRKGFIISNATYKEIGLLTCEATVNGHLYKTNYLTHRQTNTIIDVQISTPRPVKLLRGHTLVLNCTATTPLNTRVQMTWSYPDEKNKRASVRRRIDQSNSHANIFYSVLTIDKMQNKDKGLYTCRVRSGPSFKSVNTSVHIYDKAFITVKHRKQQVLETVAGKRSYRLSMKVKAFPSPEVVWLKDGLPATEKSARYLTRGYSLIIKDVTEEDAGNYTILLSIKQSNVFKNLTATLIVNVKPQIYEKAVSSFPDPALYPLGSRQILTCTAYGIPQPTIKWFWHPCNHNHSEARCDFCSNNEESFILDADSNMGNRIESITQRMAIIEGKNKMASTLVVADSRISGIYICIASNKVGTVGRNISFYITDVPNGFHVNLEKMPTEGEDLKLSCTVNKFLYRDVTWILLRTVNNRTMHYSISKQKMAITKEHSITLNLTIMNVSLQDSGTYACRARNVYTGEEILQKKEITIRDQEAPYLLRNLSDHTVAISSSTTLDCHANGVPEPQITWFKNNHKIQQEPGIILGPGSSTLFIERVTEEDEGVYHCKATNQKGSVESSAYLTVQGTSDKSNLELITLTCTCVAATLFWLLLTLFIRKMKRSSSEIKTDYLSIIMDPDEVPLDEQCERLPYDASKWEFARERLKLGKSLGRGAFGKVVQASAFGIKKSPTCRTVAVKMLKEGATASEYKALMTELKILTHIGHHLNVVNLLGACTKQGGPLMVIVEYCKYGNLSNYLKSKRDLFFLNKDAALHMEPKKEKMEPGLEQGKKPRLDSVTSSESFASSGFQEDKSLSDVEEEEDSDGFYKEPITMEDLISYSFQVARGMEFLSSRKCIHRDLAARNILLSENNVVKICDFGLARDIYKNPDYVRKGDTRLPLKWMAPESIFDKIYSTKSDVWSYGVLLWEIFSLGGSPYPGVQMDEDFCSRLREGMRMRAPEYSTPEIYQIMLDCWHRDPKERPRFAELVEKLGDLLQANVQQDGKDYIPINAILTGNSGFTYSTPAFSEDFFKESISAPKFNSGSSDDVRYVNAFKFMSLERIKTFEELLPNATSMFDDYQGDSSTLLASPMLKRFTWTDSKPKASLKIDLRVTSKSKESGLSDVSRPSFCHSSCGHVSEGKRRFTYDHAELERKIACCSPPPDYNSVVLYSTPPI

| Structure (SMILES) | IC50 (VEGFR-1) [nM] | IC50 (VEGFR-3) [nM] | total liver weight ([1]; daily P.O. between 10th and 12th month after DEN) | reduction of number of tumors/liver [1, 4] [%] | reduction of total tumor volume [1, 4] [%] | formation of new loci compared to the 10th month [1, 5] | tumor development compared to the 10th month [1, 5] | selectivity for VEGFR-3 compared to other tested kinases, receptors, enzymes and ion channels [2] | decrease of mean weight of the liver lobe bearing the tumor ([3]; from 14 days post cell injection, Day 28 post cell injection, vs vehicle, p=0.001) [%] | reduction of tumor weight (normal liver lobe weight deduced) ([3]; Day 28, normal liver lobe deduced from lobe of tumor bearing mice) [%] | IC50 (primary lymphatic cells) [nM] | OS (overall survival) gain over placebo (hepatocellular carcinoma) |
| --- | --- | --- | --- | --- | --- | --- | --- | --- | --- | --- | --- | --- |
| CCn1c(N)c(-c2ncc[nH]2)c(=O)c2ccc(C#C[C@@](C)(O)COC)nc21 [Example 1, 2-Amino-1-ethyl-7-((3R)-3-hydroxy-4-methoxy-3-methyl-but-1-ynyl)-3-(1H-imidazol-2-yl)-1H-[1,8]-naphthyridin-4-one] | > 1000 | ~25 | reduced and almost normalized | 50 | 85 | prevented the formation of new loci | completely blocked tumor development | highly selective for VEGFR-3 | 34 | 62 | 10 to 15 |  |
| CCn1c(N)c(-c2ncc[nH]2)c(=O)c2ccc(C#C[C@@](C)(O)CO)nc21 [Example 2, 2-Amino-7-((3R)3,4-dihydroxy-3-methyl-but-1-ynyl)-1-ethyl-3-(1H-imidazol-2-yl)-1,8-naphthyridin-4(1H)-one] |  | ~47 |  |  |  |  |  |  |  |  |  |  |
| CNC(=O)c1cc(Oc2ccc(NC(=O)Nc3ccc(Cl)c(C(F)(F)F)c3)cc2)ccn1 [Sorafenib] |  |  |  |  |  |  |  |  |  |  |  | 2-3 months |
